From patent US20180010188A1, “METHOD FOR DETECTING NONSENSE-MEDIATED RNA DECAY” (The Regents of the University of California, priority 2016, published 2018)

How the values were obtained:
Xbp1 splicing = Xbp1 splicing (ER stress) by RT-PCR / Xbp1s level; type: cell-based, mouse
Protocol: We investigated another consequence of thapsigargin treatment, ER stress, for its possible association with NMD inhibition. Because thapsigargin-induced NMD inhibition occurred as early as 1 hour post-treatment, we examined cellular stress levels by measuring the splicing activity of X-box binding protein 1 (Xbp1). Xbp1 splicing rapidly responds to ER stress. As a part of the unfolded protein response (UPR) triggered by ER stress, the serine/threonine protein kinase/endoribonuclease inositol-requiring enzyme 1 (IRE1α) oligomerizes and activates its ribonuclease activity through trans-autophosphorylation (Rubio et al., 2011. J Cell Biol 193: 171-184; Samali et al., 2010. Int J Cell Biol 2010: 830307; van Schadewijk et al., 2012. Cell Stress Chaperones 17: 275-279; Hetz C. 2012. Nat Rev Mol Cell Biol 13: 89-102). Activated IRE1α excises a 26-nt intron of Xbp1 mRNA, resulting in a shorter isoform (Xbp1s) that encodes a potent transcriptional activator for the expression of chaperones. RT-PCR with primers flanking the 26-nt intron detected Xbp1 splicing at 1 hour after thapsigargin treatment (FIG. 3A). […] Since IRE1α is targeted by NMD (Karam et al., 2015. EMBO Rep 16: 599-609; Oren et al. 2014. EMBO Mol Med 6: 685-701), the Xbp1 intron excision could have been due to thapsigargin-induced NMD inhibition. […] Nevertheless, feedback between these two pathways may have occurred in the later phase (see below).
(§1) Neuro-2a (N2a) cells were maintained in N2a complete media consisting of L-glutamine-free Dulbecco's modified Eagle's medium (DMEM), 10% FBS and 1× GlutaMAX at 37° C. Thapsigargin (VWR, cat. no. 89161-410), ionomycin (Fisher Scientific, cat. no. AG-CN2-0416-M001) and ouabain octahydrate (Fisher Scientific, cat. no. 80055-364) were dissolved in DMSO and stored at −80° C. […]
Trizol (Life Technologies, cat. no. 15596-018) was directly added to the cells or mouse brain tissues to extract total RNA following the Trizol Reagent standard protocol. […] RNA concentrations were measured using a Nanodrop 2000c (Thermo Fisher). […]

Bip transcript = Bip transcript levels as reporter of ATF6α activity; type: cell-based, mouse
From the text: Perk knockdown attenuated thapsigargin-induced Xpb1s (FIG. 4E) probably due to the restoration of NMD activity and because NMD inhibits IRE1α to splice Xbp1 (Oren et al. 2014. EMBO Mol Med 6: 685-701; Karam et al., 2015. EMBO Rep 16: 599-609). […] The Xbp1s level in the thapsigargin-treated siPerk cells was still 6 to 8 fold higher than in DMSO-treated cells, indicative of potent IRE1a activity. We also examined Bip transcript levels as a reporter of ATF6α activity (FIG. 4F). […] In summary, in PERK-deficient cells, thapsigargin continued to activate IREα and ATF6α but no longer inhibited NMD.
as §1
Trizol (Life Technologies, cat. no. 15596-018) was directly added to the cells or mouse brain tissues to extract total RNA following the Trizol Reagent standard protocol. […] RNA concentrations were measured using a Nanodrop 2000c (Thermo Fisher). […] Relative expression (fold changes) was calculated using the ΔΔCt method. […]

Compound | thapsigargin-induced Xbp1s (Xbp1 splicing; thapsigargin plus GSK2606414) | Bip transcripts (Bip transcript; thapsigargin plus GSK2606414) | time at which Xbp1 splicing was detected (Xbp1 splicing; 0.2 μM thapsigargin, N2a cells) [h] | concentration at which Xbp1 intron excision occurred (Xbp1 splicing; N2a cells, 5 hours post-treatment) [µM] | Bip transcript levels (Bip transcript; thapsigargin treatment, maintained with siPerk)
Cn1cc(-c2ccc3c(c2)CCN3C(=O)Cc2cccc(C(F)(F)F)c2)c2c(N)ncnc21 [GSK2606414] | attenuating | did not down-regulate |  |  | 
C/C=C(/C)C(=O)O[C@H]1C(C)=C2[C@H]([C@@H]1OC(=O)CCCCCCC)[C@@](C)(OC(C)=O)C[C@H](OC(=O)CCC)[C@@]1(O)[C@H]2OC(=O)[C@@]1(C)O [thapsigargin] |  |  | 1 | 0.01 | significantly boosted
